US20140356383A1, “ADMINISTRATION OF AN ANTI-GCC ANTIBODY-DRUG CONJUGATE AND A DNA DAMAGING AGENT IN THE TREATMENT OF CANCER” (priority 2013, published 2014)
Several values for one entry are separate records, joined by “and”; a condition that tells them apart may be missing. Identical values can stand only once.

What was measured:
293-GCC#2 tumors = test: PK/PD study (phospho-histone H3) in 293-GCC#2 tumor bearing mice; format: in vivo
Source text: Phospho-histone H3 was detected by antibody (Upstate Biotechnology, now Millipore, Billerica, Mass.) staining of paraffin embedded sections of tumors.

[1] = system: PHTX-9c primary human colon tumor xenograft; test: Single agent antitumor activity in PHTX-9c (PHTX-09c) primary human colon tumor xenograft
Experimental: Female CB-17 SCID mice (eight weeks old) were inoculated subcutaneously (SC) into the flank with PHTX-9c tumor fragments (2 mm×2 mm). Tumor growth was monitored twice per week using vernier calipers and the mean tumor volume was calculated using the formula (0.5×[length×width^2]). When the mean tumor volume reached approximately 150 mm^3 (Study A) or 160 mm^3 (Study B), animals were randomized into treatment groups (n=10/group for Study A and n=9/group for Study B).
Doses were administered on Days 1, 8, and 15 for the QW schedule and Days 1, 4, 8, 11, 15, and 18 for the BIW schedule. […] The equivalent dose of linker+MMAE is 4% of the 5F9-vcMMAE dose. These calculations are based on a mean 3.9 MMAE molecules per antibody and a free antibody molecular weight of 150 kD. Actual antibody molecular weight will vary slightly due to degree of glycosylation.
Tumor volume and body weight were measured twice weekly and were continued beyond the treatment period to measure regrowth kinetics, as evidenced by tumor growth delay (TGD). Tumor volume measurements were continued until tumor volume reached 10% of the body weight in a single mouse within a treatment group, at which time the group was terminated. The percentage of tumor growth inhibition (TGI) ([mean tumor volume of the control group—mean tumor volume of a treated group]/mean tumor volume of the control group; a T/C ratio) was determined on Day 20. The T/C ratios across a treatment group were compared to the T/C ratios of the control group using a two-tailed Welch's t-test.
The differences in the tumor growth trends over time between pairs of treatment groups were assessed using linear mixed effects regression models. These models account for the fact that each animal was measured at multiple time points. A separate model was fit for each comparison, and the areas under the curve (AUC) for each treatment group were calculated using the predicted values from the model. The percent decrease in AUC (dAUC) relative to the reference group was then calculated.
The 5F9 vcMMAE immunoconjugate was tested for single agent anti-tumor activity in the four primary human tumor xengraft models at varying concentrations in order to explore whether GCC expression levels played a role in tumor sensitivity. […] Free-MMAE was also used as a negative control.

[2] = system: 293 GCC#2 tumor xenograft; test: 5F9 vcMMAE single agent efficacy in 293 GCC#2 xenograft (Example 5); format: in vivo, SCID mice; conditions: dose 1.875-7.5 mg/kg, QW, T/C=volume of tumor/control
PHTX-17c s.c. xenograft = test: MLN0264 and CPT-11 in PHTX-17C s.c. xenografts (Study CPGC-11-EF06); format: in vivo, CB-17 SCID mice
Experimental: Tumor volume was calculated using the formula: […]

[3] = system: CTG pancreatic PHTX models (Champions Oncology); test: Single-agent 5F9 vcMMAE in Champions CTG pancreatic PHTX models; format: in vivo, mice
Source text: The purpose of this study was to evaluate in vivo anti-tumor activity induced by combined administration of the 5F9 vcMMAE immunoconjugate (sometimes referred to herein as “MLN0264”) and gemcitabine in mouse xenograft primary human tumor explants (PHTX models of pancreatic cancer. These models included tumor tissue from patients with wild-type and mutant KRAS. Five pancreatic PHTX were generated by Champions Oncology (Hackensack, N.J.) using their CTG platform. 2 PHTX models were developed in-house. GCC expression was evaluated in each of the 7 PHTX models using the automated IHC assay described above.
In vivo anti-tumor studies of single-agent 5F9 vcMMAE immunoconjugate was conducted in all seven of the pancreatic subcutanreous xenograft mouse models. Animals were administered vehicle, free MMAE at 0.135 mg/kg once weekly (QW), a non-GCC targeting ADC at 7.5 mg/kg QW, or 5F9 vcMMAE at 3.75 or 7.5 mg/kg QW. The results for single agent activity of the immunoconjugate in PHTX-215 Pa and PHTX-249 Pa models is shown in FIGS. 15A and 15B, respectively.

PHTX-09c s.c. xenograft = test: 5F9 vcMMAE and cisplatin in PHTX-09c s.c. xenografts (Study CPGC-11-EF05); conditions: reference vehicle
Experimental: The endpoints for each treatment group was either a) tumor volume reaches 10% body weight; or b) body weight loss of >20%. The projected tumor volume at the study initiation date was 200 mm^3.
Not greater than one day prior to dosing, all animals were weighed to the nearest gram and grouped. Dosing solutions were vortexed prior to each administration to ensure correct delivery of compound. Animals received approximately 0.1 ml doses administered I.V. using a 1 cc syringe, 27-30 gauge, ½-¾ inch in length.
Tumor volume measurements were obtained twice per week using Vernier calipers (0.01 mm). Tumor volume was calculated using the formula:
Efficacy was evaluated in terms of % tumor growth inhibition (TGI) and tumor growth delay (TGD); the difference in days for treated vs. control tumors to reach final study volume).
TGI was assessed on an arbitrary day (when the maximum tumor volume (“MTV” of the control treatment group reaches the maximum allowable tumor volume), using the following formula:
TGD was assessed by calculating T−C, where T=mean time (in days) for treatment group tumors to reach a predetermined size, and where C=mean time (in days) for the control group tumors to reach a predetermined size (e.g., 1,000 mm^3).
The predicted differences in the log tumor values (Yijk−Yi0k, which can be interpreted as log10 (fold change from day 0)) were taken from the above models to calculate mean AUC values for each treatment group. A dAUC value was then calculated as:
For synergy analyses, the observed differences in the log tumor values were used to calculate AUC values for each animal. […] The AUC for the control, or vehicle, group was calculated using the predicted values from the pairwise models described above. A measure of synergy was defined as follows:
where Ak and Bk are the k^th animal in the individual treatment groups and ABk is the k^th animal in combination treatment group. […] The standard error of the synergy score was calculated as the square root of the sum of squared standard errors across groups A, B, and AB. […]

[4] = Study A, 0.938 mg/kg IV QW × 3 doses
[5] = Study A, 1.875 mg/kg IV QW × 3 doses
[6] = Study A, 3.75 mg/kg IV QW × 3 doses
[7] = Study A, 7.5 mg/kg IV QW × 3 doses
[8] = Study B, 0.938 mg/kg IV QW × 3 doses
[9] = Study B, 1.875 mg/kg IV QW × 3 doses
[10] = Study B, 3.75 mg/kg IV BIW × 6 doses
[11] = Study B, 3.75 mg/kg IV QW × 3 doses
[12] = Study B, 7.5 mg/kg IV QW × 3 doses
[13] = Study B, 10.0 mg/kg IV QW × 3 doses

5F9 vcMMAE: 5F9 mAb conjugated to MMAE using a vc (Val-Cit) linker; average drug loading about 3.6
Average % Tumor cells pH 3 positive (293-GCC#2 tumors; single iv dose 75 μg/kg, 1 hr): 4.525% | Average % Tumor cells pH 3 positive (293-GCC#2 tumors; single iv dose 75 μg/kg, 4 hr): 2.552% | Average % Tumor cells pH 3 positive (293-GCC#2 tumors; single iv dose 75 μg/kg, 8 hr): 4.244% | Average % Tumor cells pH 3 positive (293-GCC#2 tumors; single iv dose 75 μg/kg, 24 hr): 9.8199% | Average % Tumor cells pH 3 positive (293-GCC#2 tumors; single iv dose 75 μg/kg, 48 hr): 8.692% | Average % Tumor cells pH 3 positive (293-GCC#2 tumors; single iv dose 75 μg/kg, 96 hr): 8.628% | Average % Tumor cells pH 3 positive (293-GCC#2 tumors; single iv dose 150 μg/kg, 1 hr): 3.335% | Average % Tumor cells pH 3 positive (293-GCC#2 tumors; single iv dose 150 μg/kg, 4 hr): 2.785% | Average % Tumor cells pH 3 positive (293-GCC#2 tumors; single iv dose 150 μg/kg, 8 hr): 4.576% | Average % Tumor cells pH 3 positive (293-GCC#2 tumors; single iv dose 150 μg/kg, 24 hr): 13.79% | Average % Tumor cells pH 3 positive (293-GCC#2 tumors; single iv dose 150 μg/kg, 48 hr): 14.26% | Average % Tumor cells pH 3 positive (293-GCC#2 tumors; single iv dose 150 μg/kg, 96 hr): 14.68% | day tumors start to re-grow ([1]; PHTX-09c, 7.5 mg/kg and 10 mg/kg): ~40 days | anti-tumor activity maintained post-dosing ([1]; PHTX-09c, 7.5 mg/kg and 10 mg/kg, last dose on day 15): 3 weeks | single agent anti-tumor activity ([1]; PHTX-09c, 1.875-10 mg/kg I.V. QW×3 weeks): strong | T/C ([1]; PHTX-09c, dose 0.938-10 mg/kg, QW, T/C=volume of tumor/control): 0.09 | BW change (mean maximum percent) [1, 4]: 9.0% | TGD [1, 4]: 3.3 days | TGI ([1]; Study A, 0.938 mg/kg IV QW × 3 doses, Day 20): 21.4 (p > 0.05) % | BW change (mean maximum percent) [1, 5]: 10.6% | TGD [1, 5]: 8.2 days | TGI ([1]; Study A, 1.875 mg/kg IV QW × 3 doses, Day 20): 44.7 (p > 0.001) % | BW change (mean maximum percent) [1, 6]: 9.0% | TGD [1, 6]: 17.8 days | TGI ([1]; Study A, 3.75 mg/kg IV QW × 3 doses, Day 20): 65.3 (p > 0.001) % | BW change (mean maximum percent) [1, 7]: 7.5% | days until first tumor >1000 mm^3 [1, 7]: (>58 days | TGI ([1]; Study A, 7.5 mg/kg IV QW × 3 doses, Day 20): 84.1 (p > 0.001) % | BW change (mean maximum percent) [1, 8]: −2.3% | TGD [1, 8]: 3.8 days | TGI ([1]; Study B, 0.938 mg/kg IV QW × 3 doses, Day 20): 20.7 (p > 0.001) % | BW change (mean maximum percent) [1, 9]: 5.6% | TGD [1, 9]: 6.6 days | TGI ([1]; Study B, 1.875 mg/kg IV QW × 3 doses, Day 20): 41.3 (p > 0.001) % | BW change (mean maximum percent) [1, 10]: −1.8% | TGD [1, 10]: 31.9 days | TGI ([1]; Study B, 3.75 mg/kg IV BIW × 6 doses, Day 20, 3.75 mg/kg): 84.9 (p > 0.001) % | BW change (mean maximum percent) [1, 11]: −2.2% | TGD [1, 11]: 16 days | TGI ([1]; Study B, 3.75 mg/kg IV QW × 3 doses, Day 20): 65.7 (p > 0.001) % | BW change (mean maximum percent) [1, 12]: 6.5% | days until first tumor >1000 mm^3 [1, 12]: (>47 days | TGI ([1]; Study B, 7.5 mg/kg IV QW × 3 doses, Day 20): 84.3 (p > 0.001) % | BW change (mean maximum percent) [1, 13]: 7.2% | days until first tumor >1000 mm^3 [1, 13]: (>56 days | TGI ([1]; Study B, 10.0 mg/kg IV QW × 3 doses, Day 20, 10 mg/kg): 91.2 (p > 0.001) % | greatest maximum body weight loss during treatment period ([1]; Study B, day 7, 0.18 mg/kg MMAE group and 0.938 mg/kg 5F9-vcMMAE group): 2.3% | TGI ([1]; both studies (A and B), 0.938 mg/kg IV QW): 20.7-21.4% | TGI ([1]; both studies (A and B), 1.875 mg/kg IV QW): 41.3-44.7% | TGI ([1]; both studies (A and B), 3.75 mg/kg IV QW): 65.3-65.7% | TGI ([1]; both studies (A and B), 7.5 mg/kg IV QW): 84.1-84.3% | T/C [2]: 0.03 | Days to 1000 mm^3 (PHTX-17c s.c. xenograft; PHTX-17c, ML0264 7.5 mg/kg QW): >17 days | Mean tumor volume ± S.E.M (mm3) (PHTX-17c s.c. xenograft; PHTX-17c, ML0264 7.5 mg/kg QW): 886.1 ± 187.9 mm3 | T/C (PHTX-17c s.c. xenograft; PHTX-17c, ML0264 7.5 mg/kg QW): 0.49 | TGI (PHTX-17c s.c. xenograft; PHTX-17c, ML0264 7.5 mg/kg QW): 51% | dAUC (PHTX-17c s.c. xenograft; group A: MLN0264 7.5 mg/kg QW, reference vehicle): 28.9% | TGI, % ([3]; model CTG-0300, KRAS Mut G12V, QWx5, day 28): 64% | TGI, % ([3]; model CTG-0301, KRAS wild-type, QWx3, day 21): 24% | TGI, % ([3]; model CTG-0302, KRAS Mut G12R, QWx3, day 21): 36% | TGI, % ([3]; model CTG-0303, KRAS wild-type, QWx5, day 38): 45% | TGI, % ([3]; model CTG-0492, KRAS Mut G12V, QWx3, day 21): 62% | dAUC (PHTX-09c s.c. xenograft; group A: MLN0264 1.875 mg/kg IV QW x3): 17.8% | dAUC (PHTX-09c s.c. xenograft; group B: MLN0264 3.75 mg/kg IV QW x3, 3.75 mg/kg): 28.4% and 44.8%
